One experiment deals with histamine in CSF. Kind of experiment: Histamine (HA) in CSF after single oral dose in healthy volunteers (LC-MS). The class given is in vivo, human. The following applies: for model adjusted geometric mean ratio to baseline of histamine in CSF: 100 mg single oral dose (free form); for Comparison of treatment vs placebo, Estimate (geometric ratio), histamine in CSF: 100 mg single oral dose vs placebo. How it is done: (§1) A randomized, double-blind, placebo-controlled, parallel group, exploratory study of single oral doses of Compound (I) (free form) was conducted in healthy volunteers (HVs) to investigate the pharmacodynamic effect of Compound (I) on the release of neurotransmitters in the brain. A total of 16 subjects were enrolled into the study, which was part of a first-in-human (FIH) study.
(§2) Subjects were randomized in a 1:1 ratio to receive either a single dose of Compound (I) or placebo.
(§3) On study Day 1 in the afternoon (approximately at 16:00), the HVs underwent lumbar puncture and a spinal catheter was placed for repeated cerebrospinal fluid (CSF) sampling. The spinal catheter was placed under strict surgical aseptic conditions, as per best practice standards, by a board certified anesthesiologist. Two CSF samples were collected before administration of the study drug (Compound (I) or placebo). Study drug was administered in the evening (approximately at 18:00). Thereafter, 10 more CSF samples were collected during 16 hrs following drug administration. The exact timing of sampling (0.5, 1, 1.5, 2, 3, 4, 6, 8, 12 and 16 hr post dose). During the same period, blood samples were also collected for pharmacokinetic (PK) analysis. The subjects remained at bed rest during the CSF sampling procedure and for about 24 hr afterwards. The following safety precautions were taken: (1) proper hydration of the subjects was ensured; (2) the catheter insertion site was assessed on a regular basis for early signs of local infection or CSF leakage; (3) prophylactic interventions/treatments to reduce the risk of venous thrombosis was considered by the Investigator.
(§4) The dose of Compound (I) (free form) administered to the subjects was 100 mg. Safety, tolerability and PK assessments were made up to 72 hr post dose. Subjects were allowed to leave the study center on Study Day 4 at the discretion of the Investigator, if there were no prohibitive safety findings. The subjects were asked to return to the study site for the study completion evaluation. Safety assessments included physical examinations, electrocardiograms (ECGs), vital signs, standard clinical laboratory evaluations (hematology, blood chemistry, and urinalysis), adverse events (AEs) and serious adverse events (SAEs) monitoring.
(§5) Biomarkers related to pharmacodynamic (PD) effect of Compound (I) (e.g. histamine [HA], tele-methylhistamine [tMeHA]) were measured in the CSF using LC-MS method.
LC-MS conditions for histamine (%=percent by volume): Acquity Binary Solvent Manager/Applied Biosystems API 5000; Mobile Phase A: acetonitrile, B: 10 mM ammonium formate pH3; Gradient: 10%A for 0.25 min, increase to 15%A within 0.25 min, increase to 25%A within 4 min, increase to 90%A within 0.10 min, 90%A for 0.9 min, back to 10%A within 0.10 min, 10%A for 2.40 min; Run time: 8 min; Flow rate: 0.35 mL/min; Analytical column: Acquity BEH C18, 150×2.1 mm, 1.7 μm; Temperature: 30° C. The desired compound histamine LC-MS: Rt=3.85 min, m/z 246 (M+H)^+
The effect of Compound (I) on CSF biomarkers was assessed using mixed models for repeated measures (MMRM). These parameters were log transformed and analyzed using a model including treatment and timepoint, the treatment*timepoint interaction term, and log transformed baseline as fixed effects. An unstructured residual covariance matrix within subjects was considered as desirable, but an alternative covariance structure (autoregressive) was used due to a lack of fit. The mean difference versus placebo (and its 90% CI) was calculated at each dose level. These were back-transformed to give a geometric ratio (and its 90% CI) between each dose and placebo.
Subjects: The study population comprised of male and female (of non-child bearing potential) healthy volunteers (HVs) 18-55 years of age. […] BMI=Body weight (kg)/[Height (m)]2. Subjects were able to communicate well with the Investigator, to understand and comply with the requirements of the study. […]

For experiment [1], the system named is tele-methylhistamine in CSF. Kind of experiment: tele-methylhistamine (tMeHA) in CSF after single oral dose in healthy volunteers (LC-MS). The class given is in vivo, human. The settings on record: for model adjusted geometric mean ratio to baseline of tele-methylhistamine in CSF: 100 mg single oral dose (free form); for Comparison of treatment vs placebo, Estimate (geometric ratio), tele-methylhistamine in CSF: 100 mg single oral dose vs placebo. The protocol: as §1, §2, §3, §4, §5
LC-MS conditions for tele-methyl-histamine (%=percent by volume): Acquity Binary Solvent Manager/Applied Biosystems API 5000; Mobile Phase A: acetonitrile, B: 10 mM ammonium formate pH9; Gradient: 15%A for 0.25 min, increase to 25%A within 4.75 min, increase to 90%A within 0.10 min, 90%A for 0.50 min, back to 15%A within 0.10 min, 15%A for 0.60 min; Run time: 6.3 min; Flow rate: 0.65 mL/min; Analytical column: Acquity BEH C18, 150×2.1 mm, 1.7 μm; Temperature: 70° C. The desired compound tele-methyl-histamine LC-MS: Rt=4.66 min, m/z 260 (M+H)^+
Compound (I) can induce histamine release in a subject and thereby promote wakefulness. The tMeHA is the direct breakdown product of HA and can thus be used as a marker for HA release. In animals, the half-life of HA is about 20 minutes. Therefore HA is not an ideal mechanistic PD marker for Compound (I). due to its short half-life. […] Due to its slower breakdown, tMeHA was expected to be a more useful PD marker of Compound (I) activity than HA itself.
The effect of Compound (I) on CSF biomarkers was assessed using mixed models for repeated measures (MMRM). These parameters were log transformed and analyzed using a model including treatment and timepoint, the treatment*timepoint interaction term, and log transformed baseline as fixed effects. An unstructured residual covariance matrix within subjects was considered as desirable, but an alternative covariance structure (autoregressive) was used due to a lack of fit. […]

The conditions of experiment [2]: SWD patients; N. Engl. J. Med., 2005, 353, 476-486; cited from earlier work.
Setting [3] is: healthy volunteers, 0.5 hr post-dose.
Setting [4] is: healthy volunteers, 1.0 hr post-dose.
[5] abbreviates: healthy volunteers, 1.5 hr post-dose.
[6] abbreviates: healthy volunteers, 2.0 hr post-dose.
Setting [7] is: healthy volunteers, 3.0 hr post-dose.
Setting [8] is: healthy volunteers, 4.0 hr post-dose.
The mark [9] stands for this setting: healthy volunteers, 6.0 hr post-dose.
Where [10] appears, read: healthy volunteers, 8.0 hr post-dose.
Setting [11] is: healthy volunteers, 12.0 hr post-dose.
Where [12] appears, read: healthy volunteers, 16.0 hr post-dose.

Structures are written as SMILES. Entries after “also recorded” stand apart in the source; their conditions may differ.

With `Cn1nc(N2CCC(OC(=O)N3CCN(C4CCC4)CC3)CC2)ccc1=O` [Compound (I), 1-(1-methyl-6-oxo-1,6-dihydropyridazin-3-yl)piperidin-4-yl 4-cyclobutylpiperazine-1-carboxylate], the “model adjusted geometric mean ratio to baseline of histamine in CSF” value with histamine in CSF (0.5 hr post-dose) worked out at 1.27; in the experiment with histamine in CSF (1.0 hr post-dose), 1.09; in the experiment on histamine in CSF (1.5 hr post-dose), 0.95; with histamine in CSF (2.0 hr post-dose), 1.02; with histamine in CSF (3.0 hr post-dose), 1.01; in the experiment on histamine in CSF (4.0 hr post-dose), 0.73. For the same compound, the “model adjusted geometric mean ratio to baseline of histamine in CSF” value was 0.63 in the experiment with histamine in CSF (6.0 hr post-dose), 0.83 in the experiment on histamine in CSF (8.0 hr post-dose), 0.84 in the experiment on histamine in CSF (12.0 hr post-dose) and 0.92 in the experiment with histamine in CSF (16.0 hr post-dose). For the same compound, the “Comparison of treatment vs placebo, Estimate (geometric ratio), histamine in CSF” value in the experiment with histamine in CSF (0.5 hr post-dose) is 1.16; in the experiment with histamine in CSF (1.0 hr post-dose) it was 0.96; in the experiment with histamine in CSF (1.5 hr post-dose), 0.97; with histamine in CSF (2.0 hr post-dose), 0.99; in the experiment on histamine in CSF (3.0 hr post-dose) it was 1.15; in the experiment with histamine in CSF (4.0 hr post-dose), 0.79. For the same compound, the “Comparison of treatment vs placebo, Estimate (geometric ratio), histamine in CSF” value with histamine in CSF (6.0 hr post-dose) is 0.64; in the experiment with histamine in CSF (8.0 hr post-dose) it was 1.14; in the experiment with histamine in CSF (12.0 hr post-dose), 1.14; in the experiment with histamine in CSF (16.0 hr post-dose), 0.82. Besides, the “mean CSF HA levels, treatment vs placebo (in words)” value with histamine in CSF (free form, 100 mg, single dose, 16 hrs observation) was “No clear trend of a difference; also recorded: No treatment response was detected”. Also, the “between group difference in CSF tMeHA (statistical significance)” value in experiment [1] (at 1.5 hrs post dose and at all subsequent sampling points) is reported as “statistically significant”. Besides, the “time for which mean CSF tMeHA level was increased compared to baseline” value in experiment [1] (healthy volunteers, 100 mg single oral dose) is recorded as “about 10 hrs”. For the same compound, the “model adjusted geometric mean ratio to baseline of tele-methylhistamine in CSF” value in experiment [1] (setting [3]) is given as 1.01; in experiment [1] (setting [4]), 1.17; in experiment [1] (setting [5]), 1.30; in experiment [1] (setting [6]), 1.73; in experiment [1] (setting [7]), 1.64; in experiment [1] (setting [8]), 1.21. Besides, the “model adjusted geometric mean ratio to baseline of tele-methylhistamine in CSF” value in experiment [1] (setting [9]) was determined as 1.59; in experiment [1] (setting [10]), 1.20; in experiment [1] (setting [11]), 0.79; in experiment [1] (setting [12]), 1.04. Moreover, the “Comparison of treatment vs placebo, Estimate (geometric ratio), tele-methylhistamine in CSF” value in experiment [1] (setting [3]) is recorded as 1.02; in experiment [1] (setting [4]), 1.10; in experiment [1] (setting [5]), 1.39; in experiment [1] (setting [6]) it was 1.77; in experiment [1] (setting [7]), 1.88; in experiment [1] (setting [8]) it was 1.63. Also, the “Comparison of treatment vs placebo, Estimate (geometric ratio), tele-methylhistamine in CSF” value in experiment [1] (setting [9]) was 1.85; in experiment [1] (setting [10]), 2.14; in experiment [1] (setting [11]), 2.45; in experiment [1] (setting [12]) it was 1.57. The “mean tMeHA level in CSF / ratio to baseline, treatment vs placebo (in words)” value in experiment [1] (healthy volunteers, 100 mg single oral dose, entire observation period) is recorded as “higher; also recorded: robust increase”.
Consider `NC(=O)C[S+]([O-])C(c1ccccc1)c1ccccc1` (stereo not drawn) [modafinil, 2-(benzhydrylsulfinyl)acetamide], for which, in experiment [2], the “mean sleep latency (MSLT)” value is “modest but statistically significant improvement”.

(Values after patent publication US20220184073A1, “USE OF A H3R INVERSE AGONIST FOR THE TREATMENT OF SHIFT WORK DISORDER” (Novartis AG, priority 2017, published 2022).)
